Experimental data from US20230407321A1, “METHOD TO DELIVER CHEMICALS AND NUCLEIC ACIDS TO PLANT CELLS USING CELLULOSE NANOCRYSTALS AS A CARRIER” (BOARD OF TRUSTEES OF THE UNIVERSITY OF ARKANSAS, priority 2022, published 2023).

Columns and labels:
[1] = test system: N. tabacum callus culture; assay: Tobacco callus growth on MS media with 2,4-D, CNC or CNC-2,4-D conjugate; type: cell-based, Nicotiana tabacum; conditions: reduced amount of 2,4-D (0.4 mg/L or equivalent), 35 days in the dark, total fresh weight
Protocol: To understand if CNC can deliver a plant hormone that encourages cell division to plants, CNCs conjugated with 2,4-D were added to MS medium. 2,4-D was selected for conjugation based on the extensive use of this synthetic auxin as both a plant growth regulator commonly employed in tissue cultures and as an active ingredient in commercial herbicides. At a modest dose of 1 mg/L, 2,4-D can act as a positive growth regulator and is commonly used in plant cell cultures. […] To estimate if the conjugation of CNC and 2,4-D can improve the uptake of 2,4-D, the total biomass of callus tissues cultivated on media containing 2,4-D was measured. N. tabacum calli were seeded on media containing either a standard dose of 2,4-D (1 mg/L) or a reduced dose of 2,4-D (0.4 mg/L) both conjugated and non-conjugated with CNC. […]
N. tabacum callus culture that was established by Khodakovskaya et al. was used in experiments. […] Callus growth was on the following mediums was assessed: MS medium (no 2,4-D supplement); MS medium supplemented with reduced dose of 2,4-D (0.4 mg/L); MS medium supplemented only with CNC (0.4 mg/L); MS medium supplemented with non-conjugated CNC (0.4 mg/L) and 2,4-D (0.4 mg/L); and MS medium supplemented with CNC-2,4-D conjugate (with 0.4 mg/L 2,4D). Total produced cell biomass was evaluated by measurement of total fresh weight of callus culture generated in the end of cultivation period.

[2] = test system: Arabidopsis thaliana leaves; assay: Confocal microscopy uptake of CNC-DTAF by Arabidopsis leaves; type: cell-based; conditions: free CNC or DTAF in doses comparable with amounts in the CNC-DTAF conjugate (negative controls), 4 hours
Protocol: To evaluate entry of synthesized CNC-dye conjugates into leaves, 12-day-old Arabidopsis thaliana seedlings were soaked with CNC-DTAF conjugate solution for 4 hours. Additionally, both protoplasts and callus cells of Nicotiana tabacum were incubated with CNC-FITC conjugate for 4 hours, as shown in FIG. 4A. All samples were imaged with confocal microscopy. The fluorescence of CNC-DTAF and CNC-FITC stained samples was digitally measured to determine the difference in signal intensity between conjugate-treated and untreated plant samples.
FIGS. 4B-F show fluorescence intensity images and measured fluorescence intensity (f) of Arabidopsis leaves incubated with water (FIG. 4B), CNC (FIG. 4C), DTAF (FIG. 4D) and CNC-DTAF conjugates (FIG. 4E), for 4 hours.
This observation indicated the ability of CNC to penetrate the cell wall and deliver dye inside the cell.
Leaves of 12-day-old A. thaliana seedlings were soaked in water (control), DTAF solution, CNC solution, or DTAF-CNC solution (1 mg/mL) for 4 hours and then intensively washed with ddH2O to fully remove residual treatments. Both freshly isolated N. tabacum protoplasts and callus cells that were cultivated for 20 days on standard Murashige and Skoog medium (MS medium) were immersed into 1 mg/mL of FITC-CNC conjugate or solution CNC and allowed to incubate for 4 hours. […]

Compound | cell growth compared to medium with regular dose of 2,4-D (1 mg/L) [1] | fluorescence observed in leaves [2]
O=C(O)COc1ccc(Cl)cc1Cl [2,4-D, 2,4-dichlorophenoxyacetic acid] | suppressed cell growth | 
Cl.O=C1OC2(c3ccc(O)cc3Oc3cc(O)ccc32)c2ccc(Nc3nc(Cl)nc(Cl)n3)cc21 [DTAF, 5-[(4,6-Dichlorotriazin-2-yl)amino]fluorescein hydrochloride] |  | only slight autofluorescence
